Results: ChEMBL document CHEMBL3124911, “Chikungunya virus: emerging targets and new opportunities for medicinal chemistry” (J Med Chem, 2014)
≈ marks a conversion by molar mass, not a printed value.

Columns and labels:
[1] = tested on: Chikungunya virus; experiment: Antiviral activity against Chikungunya virus by cell-based assay; format: functional
[2] = tested on: Chikungunya virus; experiment: Antiviral activity against Chikungunya virus; format: functional
[3] = Selectivity index, ratio of CC50 for African green monkey Vero cells to EC50 for Chikungunya virus; format: toxicity, cell-based; conditions: read-out: Ratio CC50/EC50
[4] = tested on: Chikungunya virus; experiment: Antiviral activity against Chikungunya virus infected in African green monkey Vero cells assessed as inhibition of virus-induced cytopathic effect; format: functional, cell-based
[5] = tested on: Chikungunya virus; experiment: Antiviral activity against Chikungunya virus infected in BHK21 cells assessed as inhibition of viral replication after 24 hrs; format: functional, cell-based; conditions: BHK-21, 24 h
[6] = Inhibition of Chikungunya virus IMPDH

**Q.** For `CCOC(=O)c1c(CS(=O)(=O)c2ccccc2)n(C)c2cc(Br)c(O)c(CN(C)C)c12`, which IC50 [1] is on record?
**A.** 56.4 µM

**Q.** Which EC50 [2] does the source give for `C=C(C)[C@@]1(O)[C@@H]2OC3(c4ccccc4)O[C@H]1[C@@H](C)[C@]1(O3)C3=CC(=C(Cl)Cl)[C@H](OC(=O)c4ccccc4)[C@@]3(O)[C@H](OC(C)=O)[C@@]3(COC(C)=O)O[C@H]3[C@@H]21` here?
**A.** 1.5 µM

**Q.** For `CCOC(=O)c1c(C[S+]([O-])c2ccccc2)n(C)c2cc(Br)c(O)c(CN(C)C)c12` (stereo unspecified), which IC50 [1] is on record?
**A.** 54.5 µM

**Q.** Which selectivity ratio [3] does the source give for `CCOc1ccc(/C=N/NC(=O)C2CC2c2ccc(C(C)(C)C)cc2)cc1OCC` (stereo unspecified) here?
**A.** 14

**Q.** What about the EC50 [4] of the same compound?
**A.** 5 µM

**Q.** Which selectivity ratio [3] does the source give for `CCOc1ccc(/C=N/NC(=O)/C=C/c2ccc(C(C)(C)C)cc2)cc1OCC` here?
**A.** 32

**Q.** And the EC50 [4]?
**A.** 3.2 µM

**Q.** Which EC50 [1] does the source give for `CC1(C)CC[C@]2(C)CC[C@]3(C)C(=CC[C@@H]4[C@@]5(C)CCC(=O)C(C)(C)[C@@H]5CC[C@]43C)[C@@H]2C1` here?
**A.** 86 µM

**Q.** With `O=c1cnn([C@@H]2O[C@H](CO)[C@@H](O)[C@H]2O)c(=O)[nH]1` [6-AZAURIDINE] as the compound, how does the EC50 [2] read?
**A.** 0.2 µg/mL

**Q.** With `CCN(CC)CCCC(C)Nc1ccnc2cc(Cl)ccc12` (stereo unspecified) [CHLOROQUINE] as the compound, how does the IC50 [2] read?
**A.** 1.1 µg/mL (≈ 3.44 µM)

**Q.** For `COC(=O)C[C@](O)(CCC(C)(C)O)C(=O)O[C@@H]1C(OC)=C[C@]23CCCN2CCc2cc4c(cc2[C@H]13)OCO4` [HARRINGTONINE], which EC50 [5] is on record?
**A.** 0.24 µM

**Q.** With `C=C(C)[C@@H]1CC[C@]2(C)CC[C@]3(C)[C@H](CC[C@@H]4[C@@]5(C)CCC(=O)C(C)(C)[C@@H]5CC[C@]43C)[C@@H]12` [LUPENONE] as the compound, how does the EC50 [1] read?
**A.** 77 µM

**Q.** With `COc1c(C)c2c(c(O)c1C/C=C(\C)CCC(=O)O)C(=O)OC2` [MYCOPHENOLIC ACID] as the compound, how does the IC50 [6] read?
**A.** 0.2 µM

**Q.** With `C=C[C@H]1CN2CC[C@H]1C[C@H]2[C@H](O)c1ccnc2ccc(OC)cc12` [QUININE] as the compound, how does the IC50 [2] read?
**A.** 0.1 µg/mL (≈ 0.308 µM)

**Q.** Which EC50 [2] does the source give for `NC(=O)c1ncn([C@@H]2O[C@H](CO)[C@@H](O)[C@H]2O)n1` [RIBAVIRIN] here?
**A.** 83.3 µg/mL

**Q.** For `CCOC(=O)c1c(CSc2ccccc2)n(C)c2cc(Br)c(O)c(CN(C)C)c12` [UMIFENOVIR], which IC50 [1] is on record?
**A.** 12.2 µM
